{
  "source": "patent US12409176B2",
  "about": "“Methods of treating acute depression” (INTRA-CELLULAR THERAPIES, INC., priority 2018, dated 2025)",
  "key": {"[1]": {"biological_target": "serotonin transporter (SERT) (Homo sapiens, UniProt P31645)", "sequence (P31645 whole entry, species assumed)": "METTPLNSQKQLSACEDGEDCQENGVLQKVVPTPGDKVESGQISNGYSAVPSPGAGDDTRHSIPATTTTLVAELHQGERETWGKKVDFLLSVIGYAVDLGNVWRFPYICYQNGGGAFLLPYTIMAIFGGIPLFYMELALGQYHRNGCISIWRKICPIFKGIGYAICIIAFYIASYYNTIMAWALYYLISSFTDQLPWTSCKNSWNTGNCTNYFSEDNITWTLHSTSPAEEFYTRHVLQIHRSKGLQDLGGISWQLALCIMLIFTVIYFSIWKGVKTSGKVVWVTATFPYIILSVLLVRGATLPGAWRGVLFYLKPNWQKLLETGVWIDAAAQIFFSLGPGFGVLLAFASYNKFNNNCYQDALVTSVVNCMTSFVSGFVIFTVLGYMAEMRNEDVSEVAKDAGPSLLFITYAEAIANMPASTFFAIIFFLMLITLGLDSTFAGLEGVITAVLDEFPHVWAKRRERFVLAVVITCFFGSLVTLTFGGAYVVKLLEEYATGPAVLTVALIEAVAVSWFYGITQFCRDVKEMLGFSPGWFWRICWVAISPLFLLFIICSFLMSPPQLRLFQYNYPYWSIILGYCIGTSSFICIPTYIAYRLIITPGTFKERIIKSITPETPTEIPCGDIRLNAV", "assay": "Comparative serotonin transporter (SERT) inhibition among antipsychotic agents (FIG. 3)", "assay_type": "biochemical", "conditions": "FIG. 3, compared among antipsychotic drugs"}, "[2]": {"assay": "Antidepressant-like behaviors in rodents", "assay_type": "in vivo"}, "[3]": {"tested_on": "hippocampal cytokine mRNA (IL-1β, IL-6, TNFα, CCL2, IL-4, IL-10)", "assay": "LPS-induced stress: hippocampal cytokine mRNA by qPCR (FIG. 9, 10)", "assay_type": "in vivo, mice", "protocol": "Male, C57/B16 mice (n=6-12/group) are divided into five groups-control (vehicle/saline), vehicle/LPS, and […] at three different doses of ITI-007. Mice are first injected i.p. with either vehicle (5% DMSO, 5% Tween, 15% PEG, 75% water) or ITI-007 at 0.3 mg/kg, 3.0 mg/kg or 8.0 mg/kg. The mice are then immediately injected s.c. with either 0.9% saline or with 500 μg/kg lipopolysaccharide (LPS) diluted in 0.9% saline. After two hours, the animals are sacrificed, and hippocampal slices are obtained and analyzed for cytokine mRNA using qPCR. The results are shown in FIG. 9, normalized to the control group using the delta ct method. […] The results are shown in FIG. 10, normalized to the control group."}, "[4]": {"tested_on": "hippocampal pro- and anti-inflammatory cytokine expression", "assay": "Restraint stress: hippocampal cytokine expression by qPCR (FIG. 1)", "assay_type": "in vivo, mice", "conditions": "3 mg/kg i.p., 2 h restraint stress, not statistically significant", "protocol": "(§1) Male, C57/B16 mice (n=6-7/group) are divided into three groups—control (vehicle alone, no stress), vehicle—stress (vehicle, i.p.), or ITI-007—stress (3 mg/kg, i.p. in vehicle). For induction of stress, mice are placed in a plastic “decapicones” and placed on the bottom of a warm, clean rodent cage for a 2 h period. These plastic “decapicones” produce an acute restraint stress which triggers neuroinflammation in both hippocampal tissue and peripherally (as shown by serum). At the end of the stress exposure, mice are killed; blood is taken for serum preparation and brain tissue for analysis. Serum is prepared from blood; cytokine measures are performed using MSD multiplex analysis. Brain tissue is analyzed by qPCR for pro-inflammatory cytokine mRNA expression."}, "[5]": {"tested_on": "serum cytokines (IL-1β, IL-6, TNF, IL-10, IFN-gamma)", "assay": "Restraint stress: serum cytokines by MSD multiplex (FIG. 2)", "assay_type": "in vivo, mice", "conditions": "pre-treatment 3 mg/kg i.p., 2 h restraint stress", "protocol": "as §1"}, "[6]": {"tested_on": "NMDA receptor currents in mPFC pyramidal neurons", "assay": "NMDA currents in mPFC slices, whole-cell patch clamp (FIG. 4)", "assay_type": "cell-based, rat"}, "[7]": {"tested_on": "AMPA receptor currents in mPFC pyramidal neurons", "assay": "AMPA currents in mPFC slices, whole-cell patch clamp (FIG. 5, 6)", "assay_type": "cell-based", "conditions": "bath applied to rat mPFC slices, 3-100 nM, 5 min later", "description": "Combined administration of the antipsychotic, olanzapine, and the SSRI, fluoxetine, similarly induces rapid antidepressant activity in humans and animals (Tohen et al., 2010); likewise, combined application of olanzapine and fluoxetine is required to induce AMPA receptor currents in vitro."}, "[8]": {"tested_on": "mTORC1 signaling pathway (AKT Thr308, mTOR Ser2448, P70s6 kinase Thr389)", "assay": "mTOR signaling pathway phosphoprotein levels in prefrontal cortex (FIG. 7, 8)", "assay_type": "in vivo, rat", "conditions": "for mTOR phosphorylation (Serine 2448) / p70s6K phosphorylation (Threonine 389) / phosphorylation of AKT at thr308: rat PFC; for mTOR phosphorylation (Serine 2448) / p70s6K phosphorylation (Threonine 389): lumateperone 3 mg/kg or ketamine 30 mg/kg i.p.; for mTOR phosphorylation (Serine 2448) / phosphorylation of AKT at thr308: 1 hour and 24 hours; for p70s6K phosphorylation (Threonine 389): over the 24 hour period; for phosphorylation of AKT at thr308: one i.p. injection, lumateperone 3 mg/kg or ketamine 30 mg/kg, vs saline", "protocol": "It is known that upstream and downstream effectors of the mTOR (e.g., mTORC1) signaling pathway are increased in the mPFC of rats 1 hour and 24 hours after administration of the rapid-acting antidepressant ketamine.\nPre-frontal cortical phosphorylation levels of AKT (at Threonine 308), mTOR (at Serine 2448) or P70s6 kinase (at Threonine 389) are evaluated after normalization to total protein levels for each target, at both 1 hour and 24 hours. Results are shown as the percent relative change compared to placebo (saline)."}, "[9]": {"tested_on": "hippocampal gene expression", "assay": "NanoString Mouse Neuropathology panel, hippocampal mRNA after LPS", "assay_type": "in vivo, mice", "conditions": "Lumateperone/LPS compared to vehicle/LPS, 3 mg/kg i.p., 2 hours", "protocol": "Immediately after this injection, the mice are injected with either LPS (500 μg/kg diluted in 0.9% saline) or with 0.9% saline. After 2 hours, the mice are sacrificed, and hippocampal mRNA is obtained, as described in Example 1. Hippocampal RNA concentration and integrity are evaluated using an Agilent 2100 Bioanalyzer. Sample preparation, hybridization and detection are carried out according to NanoString manufacturer's instructions (NanoString technologies, WA). RNA (100 ng) expression profiling is performed using the nCounter NanoString Mouse Neuropathology panel, and data are analyzed using the nSolver software to produce and compare direct counts of mRNA. […] The neuropathology panel was developed to include genes of relevance for research in models of neurodegenerative and neurological disorders, such as Alzheimer's disease, Parkinson's disease, Amyotrophic Lateral Sclerosis, Frontotemporal Dementia, and Huntington's disease. The panel includes 770 genes associated with themes of neurotransmission, neuron-glia interaction, neuroplasticity, cell structure integrity, neuroinflammation and metabolism"}, "[10]": {"assay": "Safety and tolerability in humans", "assay_type": "in vivo"}, "[11]": {"assay": "Symptoms of depression in patients with schizophrenia", "assay_type": "in vivo, human"}, "[12]": {"tested_on": "mTORC1 signaling pathway (AKT Thr308, mTOR Ser2448, P70s6 kinase Thr389)", "assay": "mTOR signaling pathway phosphoprotein levels in prefrontal cortex (FIG. 7, 8)", "assay_type": "in vivo, rat", "conditions": "adult rats; lumateperone 1 to 8 mg/kg i.p., ketamine 30 mg/kg; 60 min, 90 min or 24 hours"}, "[13]": {"assay": "Clinical studies in acute exacerbated schizophrenia: emotional experience symptoms", "conditions": "60 mg P.O. once daily, up to 28 days; patients with acute exacerbated schizophrenia; two clinical studies"}, "[14]": {"conditions": "cited from earlier work"}, "[15]": {"tested_on": "phosphor-mTOR", "conditions": "single antidepressant-effective dose; prefrontal cortex and hippocampus of mice and rats; cited from earlier work"}, "[16]": {"conditions": "0.3, 3.0 or 8.0 mg/kg i.p., co-injection with LPS 500 μg/kg s.c., 2 hours, FIG. 9"}},
  "data": [
    {"smiles": "CN1CCN2c3c(cccc31)[C@@H]1CN(CCCC(O)c3ccc(F)cc3)CC[C@@H]12", "note": "(stereo partly drawn) [IC200131]", "values": [
      {"measurement": "SERT inhibition", "setting": "[1]", "value": "high SERT inhibition"},
      {"measurement": "antidepressant-like behaviors", "setting": "[2]", "value": "elicit antidepressant-like behaviors"}
    ]},
    {"smiles": "CN1CCN2c3c(cccc31)[C@@H]1CN(CCCC(=O)c3ccc(F)cc3)CC[C@@H]12", "note": "[Lumateperone, 4-((6bR,10aS)-3-methyl-2,3,6b,9,10,10a-hexahydro-1H-pyrido[3′,4′:4,5]pyrrolo[1,2,3-de]quinoxalin-8(7H)-yl)-1-(4-fluorophenyl)-1-butanone]", "values": [
      {"measurement": "SERT inhibition", "setting": "[1]", "value": "very high SERT inhibition"},
      {"measurement": "hippocampal inflammatory cytokine production, delayed dosing", "setting": "[3]; 3.0 mg/kg, given 30 minutes after LPS, FIG. 10", "value": "suppresses inflammatory cytokine production"},
      {"measurement": "hippocampal anti-inflammatory cytokine mRNA (IL-4, IL-10)", "setting": "[3]; [16]", "value": "significantly enhanced"},
      {"measurement": "hippocampal pro-inflammatory cytokine mRNA (IL-1β, IL-6, TNFα, CCL2)", "setting": "[3]; [16]", "value": "significantly attenuated"},
      {"measurement": "hippocampal CCL2 and IL-10 levels", "setting": "[4]", "value": "elevated"},
      {"measurement": "hippocampal expression of pro-inflammatory cytokines by qPCR", "setting": "[4]", "value": "generally depressed"},
      {"measurement": "stress effects on serum IL-1ρ and IL-6", "setting": "[5]", "value": "significantly attenuates"},
      {"measurement": "stress effects on serum TNF and IL-10", "setting": "[5]", "value": "trends, but not statistically significant"},
      {"measurement": "NMDA currents", "setting": "[6]; bath applied to rat mPFC slices, 3-100 nM, 5 min later", "value": "enhanced"},
      {"measurement": "effect on NMDA and AMPA currents in the presence of the D1 receptor antagonist SCH-23390", "setting": "[6]; lumateperone 30 nM, SCH-23390 1 μM", "value": "fully blocked"},
      {"measurement": "AMPA currents", "setting": "[7]", "value": "enhanced"},
      {"measurement": "duration of effect on phospho-protein levels at 24 hours", "setting": "[8]; compared with ketamine 30 mg/kg", "value": "longer lasting effect compared with ketamine"},
      {"measurement": "AKT thr308 phosphorylation effect at 24 hours versus ketamine", "setting": "[8]; lumateperone 3 mg/kg vs ketamine 30 mg/kg i.p., not declining in intensity (FIG. 8)", "value": "stronger at 24 hours than for ketamine"},
      {"measurement": "mTOR phosphorylation (Serine 2448)", "setting": "[8]", "value": "Neither ketamine nor lumateperone results in a change"},
      {"measurement": "p70s6K phosphorylation (Threonine 389)", "setting": "[8]", "value": "progressively increases"},
      {"measurement": "phosphorylation of AKT at thr308", "setting": "[8]", "value": "increase phosphorylation"},
      {"measurement": "Linear Change, down-regulated genes: Ctns, Jun, Polr2l, Usp21, Csf1, Sirt1, Atf4, Fclrls", "setting": "[9]", "value": "0.80-0.85 fold"},
      {"measurement": "Linear Change, down-regulated genes: Hc, Osmr", "setting": "[9]", "value": "<0.500-fold"},
      {"measurement": "Linear Change, down-regulated genes: Nfe2l2, Naglu, Pla2g4b, Npas4, Nos3", "setting": "[9]", "value": "0.75-0.80-fold"},
      {"measurement": "Linear Change, down-regulated genes: Ptgs2, Cp, Cntf, Tnfrsf1a, Il1R1", "setting": "[9]", "value": "0.5-0.75-fold"},
      {"measurement": "Linear Change, up-regulated gene: Cldn5", "setting": "[9]", "value": ">1.5", "unit": "fold"},
      {"measurement": "Linear Change, up-regulated genes: Egr1, Gata2, Olig2", "setting": "[9]", "value": "1.25-1.5 fold"},
      {"measurement": "Linear Change, up-regulated genes: Phf21a, Islr2, Ngf, Arrb2, Homer1, Notch1, Rapgef2, Pde4d", "setting": "[9]", "value": "1.1-1.25 fold"},
      {"measurement": "Linear Change, up-regulated genes: Syt4, Adcy9, Gabrb2, Slc8a1, Inppf5, Scn1a, Pten, Crebbp", "setting": "[9]", "value": "1.0-1.1 fold"},
      {"measurement": "antidepressant-like behaviors", "setting": "[2]", "value": "elicit antidepressant-like behaviors"},
      {"measurement": "safety and tolerability", "setting": "[10]", "value": "safe and well-tolerated"},
      {"measurement": "symptoms of depression", "setting": "[11]", "value": "improves symptoms of depression"},
      {"measurement": "activation of the mTORC1 signaling pathway in mPFC (p-Akt thr308, p-P70S6K)", "setting": "[12]", "value": "rapidly activates"},
      {"measurement": "symptoms of emotional experience compared to placebo", "setting": "[13]", "value": "significant and unexpected improvement"}
    ]},
    {"smiles": "CNC1(c2ccccc2Cl)CCCCC1=O", "note": "(stereo not drawn) [ketamine, reference compound]", "values": [
      {"measurement": "mTOR phosphorylation (Serine 2448)", "setting": "[8]", "value": "Neither ketamine nor lumateperone results in a change"},
      {"measurement": "p70s6K phosphorylation (Threonine 389)", "setting": "[8]", "value": "transiently increase"},
      {"measurement": "phosphorylation of AKT at thr308", "setting": "[8]", "value": "increase phosphorylation"},
      {"measurement": "activation of the mTORC1 signaling pathway in mPFC (p-Akt thr308, p-P70S6K)", "setting": "[12]", "value": "rapidly activates"},
      {"measurement": "ratings on the Hamilton Depression Rating Scale (HDRS) compared to placebo", "setting": "[14]; 40-minute infusion, total dose 0.5 mg/kg, after 24 hours, Berman et al.", "value": "significantly improved ratings"},
      {"measurement": "onset of effects after intravenous infusion", "setting": "[14]; intravenous infusion", "value": "~4", "unit": "h"},
      {"measurement": "persistence of effects", "setting": "[14]; intravenous infusion", "value": "up to 2 weeks"},
      {"measurement": "onset of induction of phosphor-mTOR after administration", "setting": "[15]", "value": "≤ 30", "unit": "min"}
    ]}
  ]
}
